The values below come from patent US20160175225A1, “Peptides and Their Use in the Treatment of Skin” (AVON PRODUCTS, INC., priority 2014, published 2016).

In assay [1] the test system is Human dermal fibroblast cells. The assay can be described thus: Pro-collagen I secretion by human dermal fibroblasts (HTRF human pro-collagen I kit). The assay is classed as cell-based. The conditions noted are these: percent change relative to vehicle control, 48 h. As to the method:
(§1) Human dermal fibroblast cells were grown in a 96 well plate in DMEM media (available from Corning, N.Y.) supplemented with 10% Fetal Bovine Serum (FBS) and L-glutamine (0.07×10^5 cells/plate). After reaching about 75% confluence, cells were transferred into DMEM media without FBS and incubated for 4-6 hours. Next, cells were treated with a peptide at 0.00001%, 0.0001%, 0.001% final concentration in DMEM media without FBS for 48 h. After treatment the media were collected, and cell viability was measured using MTT. Amount of collagen secreted was tested in the media using HTRF human pro-collagen I kit (available from Cisbio Inc., Bedford, Mass.). Amount of secreted Hyaluronic Acid (HA) was tested in the media using HA Elisa kit (available from Corgenix, Broomfield, Colo.).
(§2) Results are summarized in Table 5 below as percent change of pro-collagen I and/or HA production relative to vehicle control using the following keys with the peptide concentration provided in parentheses: […]

For assay [2], the system named is Human dermal fibroblast cells. The assay can be described thus: Hyaluronic acid (HA) secretion by human dermal fibroblasts (HA Elisa kit). In kind it is cell-based. Conditions: percent change relative to vehicle control, 48 h. As to the method:
as §1, §2

Where [3] appears, read: concentration not given (tested at 0.00001%, 0.0001%, 0.001%).

GDALQPE: the “Increase in Pro-Collagen I Production” value in assay [1] (setting [3]) was 0 (0: <10%). Further, the “Increase in HA Production” value in assay [2] (setting [3]) is listed as 0 (0: <20%).

LENTKRS: the “Increase in Pro-Collagen I Production” value in assay [1] (setting [3]) was 0 (0: <10%). In assay [2] (setting [3]), the “Increase in HA Production” value is 0 (0: <20%).

Regarding “NRNV: peptide sequence NRNV, origin PDGF, tested in Table 5”, the “Increase in Pro-Collagen I Production” value in assay [1] (setting [3]) is recorded as 0 (0: <10%). Also, the “Increase in HA Production” value in assay [2] (setting [3]) is listed as 0 (0: <20%).

“QPED: peptide sequence QPED, origin GDF11, tested in Table 5”: the “Increase in Pro-Collagen I Production” value in assay [1] (setting [3]) was 0 (0: <10%). Besides, the “Increase in HA Production” value in assay [2] (setting [3]) is 0 (0: <20%).

For the substance “RKIE: peptide sequence RKIE, origin PDGF, tested in Table 5”, the “Increase in Pro-Collagen I Production” value in assay [1] (setting [3]) was 0 (0: <10%). Moreover, the “Increase in HA Production” value in assay [2] (setting [3]) is on record as 0 (0: <20%).

As for “Met-Val-Val (MVV) [peptide derived from GDF11]”, in assay [1] (setting [3]), the “Increase in Pro-Collagen I Production” value is recorded as 0 (0: <10%). Further, the “Increase in HA Production” value in assay [2] (peptide concentration 0.0001%) was “+ (0.0001%) (+: 20-50%)”.

For “RTPKISKPIKFELSG [Arg-Thr-Pro-Lys-Ile-Ser-Lys-Pro-Ile-Lys-Phe-Glu-Leu-Ser-Gly, peptide derived from CTGF]”, the “Increase in Pro-Collagen I Production” value in assay [1] (setting [3]) is recorded as 0 (0: <10%). Moreover, the “Increase in HA Production” value in assay [2] (peptide concentration 0.001%) was “+ (0.001%) (+: 20-50%)”.

Turning to “TAKDGAP [Thr-Ala-Lys-Asp-Gly-Ala-Pro, peptide derived from CTGF]”, the “Increase in Pro-Collagen I Production” value in assay [1] (peptide concentration 0.00001%) was “+ (0.00001%) (+: 10-30%)”. In assay [2] (peptide concentration 0.001%), the “Increase in HA Production” value is “++ (0.001%) (++:50-90%)”.

Regarding “IFGGTVYRS [Ile-Phe-Gly-Gly-Thr-Val-Tyr-Arg-Ser, peptide derived from CTGF]”, the “Increase in Pro-Collagen I Production” value in assay [1] (peptide concentration 0.001%) was “+ (0.001%) (+: 10-30%)”. In assay [2] (peptide concentration 0.001%), the “Increase in HA Production” value is listed as “++ (0.001%) (++:50-90%)”.

For the substance EASAEPE, the “Increase in Pro-Collagen I Production” value in assay [1] (setting [3]) was 0 (0: <10%). Moreover, the “Increase in HA Production” value in assay [2] (setting [3]) is on record as 0 (0: <20%).

On to “Leu-Arg-Leu-Lys (LRLK) [peptide derived from GDF11 and TGFβ]”, for which the “Increase in Pro-Collagen I Production” value in assay [1] (setting [3]) is 0 (0: <10%). Moreover, the “Increase in HA Production” value in assay [2] (peptide concentration 0.001%) was “+ (0.001%) (+: 20-50%)”.

With “QILSKLRL [Gln-Ile-Leu-Ser-Lys-Leu-Arg-Leu, peptide derived from GDF11 and TGFβ]”, the “Increase in Pro-Collagen I Production” value in assay [1] (peptide concentration 0.001%) was “+ (0.001%) (+: 10-30%)”. Besides, in assay [2] (setting [3]), the “Increase in HA Production” value is given as 0 (0: <20%).

In the case of “Ala-Glu-Cys-Lys (AECK) [peptide derived from PDGF]”, the “Increase in Pro-Collagen I Production” value in assay [1] (setting [3]) is reported as 0 (0: <10%). Moreover, in assay [2] (peptide concentration 0.001%), the “Increase in HA Production” value is listed as “+++ (0.001%) (+++:90-150%)”.
